System: CD34^+ cells
Assay: total CD34^+ cell number and viability (trypan blue)
Type: cell-based, human
Conditions: ex vivo culture with/without p38i
Description: Freshly isolated CD34^+ cells were used, wherever possible, and especially for 0 h controls. In some experiments cryopreserved CD34^+ cells were thawed for 4 hrs in IMDM containing cytokines, then washed and used for experiments. CD34^+ cells were transduced in X-VIVO 10™ (Lonza) medium supplemented with 2% human serum albumin (Baxter), recombinant human Flt-3 ligand (Flt3-L; 200 ng/mL), stem cell factor (SCF; 300 ng/mL), thrombopoietin (TPO; 100 ng/mL) (all cytokines obtained from PeproTech), and penicillin-streptomycin (ThermoFisher Scientific) on non-tissue culture treated plates coated with retronectin (4 μg/cm2, CH-296, Takara Bio Inc.). For LV transduction, CD34^+ cells (2-5×10^6/mL) were pre-stimulated for 4-8 hours and transduced twice with lentivirus vector (LV) maintaining the vector concentration between 5×10^7 to 1×10^8 infectious unit (IU) per mL of media volume, 12-14 hours apart. Cells were kept in culture for a total of either 18-24 hours, 36-42 hours or 72-96 hours. For RV transduction, human CD34^+ cells were pre-stimulated for ˜2 days (42-48 hours) hours at a cell density of 3×10^5 cells/ml. Retronectin coated tissue culture flasks or plates were preloaded at room temperature with GALV pseudotyped RV twice for one hour each. The vector supernatant was removed and the cells were loaded into the RV loaded retronectin coated flasks. […]

SMILES: Cc1ccc(-n2nc(C(C)(C)C)cc2NC(=O)Nc2ccc(OCCN3CCOCC3)c3ccccc23)cc1 [p38i, 1-[5-tert-butyl-2-(4-methylphenyl)pyrazol-3-yl]-3-[4-(2-morpholin-4-ylethoxy)naphthalen-1-yl]urea]
- total number of CD34^+ cells, or viability in vitro: no effect

From patent US11518981B2, “Methods of enhancing engraftment activity of hematopoietic stem cells” (CHILDREN'S HOSPITAL MEDICAL CENTER, priority 2017, dated 2022)
